{"source": "patent US20060051526A1", "about": "“Process for producing cellulose acylate film” (Fuji Photo Film Co., Ltd., priority 2002, published 2006)", "format_in_all_cases": "physicochemical", "key": {"[1]": {"experiment": "Solubility test of the additive alone in dichloromethane/methanol mixed solvent (visual, after 4 days)", "details": "for Solubility S0 (solids weight concentration at the dissolution limit): CH2Cl2/CH3OH 87/13", "description": "The solubility of the functional additives was measured as follows.\n1. Solutions were prepared by adjusting each concentration in a 50 cc screw cap bottle.\n2. Allowed to stand at room temperature for 4 days. Here, the results of the solubility changed between 1 day and 4 days in some cases, and evaluation of the solubility was carried out after 4 days as a time when equilibrium was reached.\n3. Samples were prepared in the same manner at other temperatures (20° C., 35° C.), and the solubility after allowing to stand for 4 days was visually inspected.\nPredetermined amounts of Example Compounds I-(51) and I-(2) were weighed into a mixed solvent of dichloromethane and methanol, and the solubility was measured by changing the mixing ratio of the organic solvents.\nThe solubility (solids weight concentration at the dissolution limit was calculated as (C1+C2)/2 when the concentration limit at which it could be dissolved was C1 and the concentration limit at which it could not be dissolved was C2) of the retardation control agent in a mixed solvent having an initial methylene chloride/methanol composition ratio of 87/13 was defined as S0, and the solubility of the retardation control agent when the solvent composition changed, during drying, to 74/26 where the methanol wt % was the maximum was defined as S1. The temperature at which the solubility was measured is denoted by the figure in brackets."}, "[2]": {"experiment": "Measurement of micro heat of solution (multi-purpose calorimeter MPC-110)", "details": "for Degree of stabilization: Table 15; for Heat of solution ΔH0: solvent alone, 26.0° C.", "description": "(2 Measurement of Micro Heat of Solution)\nThe heat of solution (dissolution enthalpy ΔH) of functional additives was measured as follows, using a multi-purpose calorimeter (MPC-110) manufactured by Tokyo Rikou as a micro heat of solution measuring instrument.\n1. Solvent liquids and concentrated solutions were prepared beforehand in 1 L bottles.\n2. Preparation of ampoule tubes\n(1) Additives (powdered solid) were ground by a mortar and the granules were made uniform.\n(2) A required amount (252 mg) of the additive to be measured was weighed into an ampoule tube for measurement of the micro heat of solution.\n(3) The neck of the ampoule tube was heated sufficiently by a gas burner so as to seal the ampoule tube.\n3. 50 g of the prepared solvent liquid or the concentrated solution was weighed into a measuring vessel. This amount was selected as an amount sufficient to immerse the ampoule tube in the solvent liquid when set in the measuring instrument.\n4. The ampoule tube was set in the measuring instrument, which was equipped with an ampoule sealing mechanism, the measuring vessel was hermetically sealed with the ampoule sealing mechanism after confirming that the ampoule tube was immersed in the solvent liquid, it was placed in a constant temperature bath (26.0° C.), and stirring was started.\n5. After confirming that the measuring instrument placed in the constant temperature bath had reached equilibrium temperature (about 8 to 12 hours) the ampoule tube was broken so as to mix the additive with the solvent liquid or the concentrated solution.\n6. The total amount of heat generated was recorded.\n7. The Joule's heat generated was measured by applying a known voltage to the measurement system for an appropriate time, and the recorded chart area for each measurement cell was calibrated using a known amount of heat.\n8. The heat of solution of the sample was calculated from the Joule's heat and the measured sample area.\nShown in Table 11 are the solvent composition (wt %) and the solids composition (parts by weight) of the mother liquor when measuring the heat of solution, the type of retardation control agent sealed in the ampoule tube (Example Compounds I-(51) or I-(2)), and the results of measurement of the heat of solution.\nThe identification symbols of elements constituting the system are as follows: a denotes triacetylcellulose/plasticizer, b denotes triacetylcellulose, and c denotes plasticizer. For example, 2-87a denotes that the retardation control agent is the Example Compound I-(2), the solvent composition (wt %) is dichloromethane/methanol=87/13, and the solids constituting the system are triacetylcellulose and the plasticizer.\nThe heat of solution ΔH0 denotes the heat of solution (heat absorption) generated when there is no solid in the system (before breaking the ampoule tube) and the retardation control agent is dissolved in a solvent alone. […] The solids concentration of the system when saturation starts is defined as the saturation heat of solution solids concentration (wt %).\nIn all cases, when the solids concentration of the system is increased, the heat of solution either remains unchanged from that at a solids concentration of 0 wt % (the saturation heat of solution solids concentration is 0) or decreases and becomes saturated. […] This degree of stabilization is expressed as ΔH0−ΔHs, which is the decrease in the heat of solution."}, "[3]": {"experiment": "Solubility test of the additive alone in dichloromethane/methanol mixed solvent (visual, after 4 days)"}, "[4]": {"details": "87/13, solids a: triacetylcellulose/plasticizer"}, "[5]": {"details": "87/13, solids b: triacetylcellulose only"}, "[6]": {"details": "87/13, solids c: plasticizer only"}, "[7]": {"details": "initial 87/13 vs 74/26, at any of 25° C., 20° C., 35° C."}}}
{"smiles": "Cc1cccc(Nc2nc(Nc3cccc(C)c3)nc(Nc3cccc(C)c3)n2)c1", "note": "[Example Compound I-(51)]", "values": [{"measurement": "Ratio S1/S0", "setting": "[1]; 20° C., 87/13 vs 74/26", "result": 0.455}, {"measurement": "Solubility S0 (solids weight concentration at the dissolution limit)", "setting": "[1]; 20° C.", "result": 27.5, "unit": "wt %"}, {"measurement": "Ratio S1/S0", "setting": "[1]; 25° C., 87/13 vs 74/26", "result": 0.467}, {"measurement": "Difference S0 − S1", "setting": "[1]; 35° C., 87/13 vs 74/26", "result": 15, "unit": "wt %"}, {"measurement": "Ratio S1/S0", "setting": "[1]; 35° C., 87/13 vs 74/26", "result": 0.455}, {"measurement": "Solubility S1 (solids weight concentration at the dissolution limit)", "setting": "[1]; 35° C., CH2Cl2/CH3OH 74/26", "result": 12.5, "unit": "wt %"}, {"measurement": "Solubility S0 (solids weight concentration at the dissolution limit)", "setting": "[1]; 35° C.", "result": 27.5, "unit": "wt %"}, {"measurement": "Degree of stabilization (ΔH0 − ΔHs)", "setting": "[2]; 50/50, solids a", "result": 0, "unit": "kcal/mol"}, {"measurement": "Saturation heat of solution solids concentration", "setting": "[2]; 50/50, solids a", "result": 0, "unit": "wt %"}, {"measurement": "Heat of solution ΔHs", "setting": "[2]; 50/50, solids a: triacetylcellulose/plasticizer", "result": 4.25, "unit": "kcal/mol"}, {"measurement": "Degree of stabilization (ΔH0 − ΔHs)", "setting": "[2]; 74/26, solids a", "result": 0, "unit": "kcal/mol"}, {"measurement": "Saturation heat of solution solids concentration", "setting": "[2]; 74/26, solids a", "result": 0, "unit": "wt %"}, {"measurement": "Heat of solution ΔHs", "setting": "[2]; 74/26, solids a: triacetylcellulose/plasticizer", "result": 4.56, "unit": "kcal/mol"}, {"measurement": "Degree of stabilization (ΔH0 − ΔHs)", "setting": "[2]; [4]", "result": 0.5, "unit": "kcal/mol"}, {"measurement": "Saturation heat of solution solids concentration", "setting": "[2]; [4]", "result": 5, "unit": "wt %"}, {"measurement": "Heat of solution ΔHs", "setting": "[2]; 87/13, solids a: triacetylcellulose/plasticizer (TPP/BDP)", "result": 4.35, "unit": "kcal/mol"}, {"measurement": "Degree of stabilization (ΔH0 − ΔHs)", "setting": "[2]; [5]", "result": 0.6, "unit": "kcal/mol"}, {"measurement": "Heat of solution ΔHs", "setting": "[2]; [5]", "result": 4.25, "unit": "kcal/mol"}, {"measurement": "Saturation heat of solution solids concentration", "setting": "[2]; [5]", "result": 5, "unit": "wt %"}, {"measurement": "Degree of stabilization (ΔH0 − ΔHs)", "setting": "[2]; [6]", "result": 0, "unit": "kcal/mol"}, {"measurement": "Heat of solution ΔHs", "setting": "[2]; [6]", "result": 4.85, "unit": "kcal/mol"}, {"measurement": "Saturation heat of solution solids concentration", "setting": "[2]; [6]", "result": 0, "unit": "wt %"}, {"measurement": "Degree of stabilization (ΔH0 − ΔHs)", "setting": "[2]; 92/8, solids a", "result": 0.8, "unit": "kcal/mol"}, {"measurement": "Saturation heat of solution solids concentration", "setting": "[2]; 92/8, solids a", "result": 7, "unit": "wt %"}, {"measurement": "Heat of solution ΔHs", "setting": "[2]; 92/8, solids a: triacetylcellulose/plasticizer", "result": 4.23, "unit": "kcal/mol"}, {"measurement": "Degree of stabilization (ΔH0 − ΔHs)", "setting": "[2]; 100/0, solids a", "result": 1.48, "unit": "kcal/mol"}, {"measurement": "Saturation heat of solution solids concentration", "setting": "[2]; 100/0, solids a", "result": 10, "unit": "wt %"}, {"measurement": "Heat of solution ΔHs", "setting": "[2]; 100/0, solids a: triacetylcellulose/plasticizer", "result": 3.79, "unit": "kcal/mol"}, {"measurement": "Degree of stabilization", "setting": "[2]; dope Table 12, solvent composition 87/13", "result": 0.50, "unit": "kcal/mol"}, {"measurement": "Degree of stabilization", "setting": "[2]; dope Table 13, solvent composition 92/8", "result": 0.80, "unit": "kcal/mol"}, {"measurement": "Degree of stabilization", "setting": "[2]; dope Table 14, solvent composition 74/26", "result": 0, "unit": "kcal/mol"}, {"measurement": "Stabilization by solids in the system (in words)", "setting": "[2]; case c: only the plasticizer present in the system", "result": "not stabilized"}, {"measurement": "Heat of solution ΔH0", "setting": "[2]; dichloromethane/methanol 50/50 wt %", "result": 4.25, "unit": "kcal/mol"}, {"measurement": "Heat of solution ΔH0", "setting": "[2]; dichloromethane/methanol 74/26 wt %", "result": 4.56, "unit": "kcal/mol"}, {"measurement": "Heat of solution ΔH0", "setting": "[2]; dichloromethane/methanol 87/13 wt %", "result": 4.85, "unit": "kcal/mol"}, {"measurement": "Heat of solution ΔH0", "setting": "[2]; dichloromethane/methanol 92/8 wt %", "result": 5.03, "unit": "kcal/mol"}, {"measurement": "Heat of solution ΔH0", "setting": "[2]; dichloromethane/methanol 100/0 wt %", "result": 5.27, "unit": "kcal/mol"}, {"measurement": "Difference S0 − S1", "setting": "[3]; 20° C., 87/13 vs 74/26", "result": 15, "unit": "wt %"}, {"measurement": "Difference S0 − S1", "setting": "[3]; 20° C., 92/8 vs 91/9", "result": 0, "unit": "wt %"}, {"measurement": "Ratio S1/S0", "setting": "[3]; 20° C., 92/8 vs 91/9", "result": 1.000}, {"measurement": "Solubility S1 (solids weight concentration at the dissolution limit)", "setting": "[3]; 20° C., CH2Cl2/CH3OH 74/26", "result": 12.5, "unit": "wt %"}, {"measurement": "Solubility S1 (solids weight concentration at the dissolution limit)", "setting": "[3]; 20° C., CH2Cl2/CH3OH 91/9", "result": 27.5, "unit": "wt %"}, {"measurement": "Solubility S0 (solids weight concentration at the dissolution limit)", "setting": "[3]; 20° C., CH2Cl2/CH3OH 92/8", "result": 27.5, "unit": "wt %"}, {"measurement": "Difference S0 − S1", "setting": "[3]; 25° C., 87/13 vs 74/26", "result": 20, "unit": "wt %"}, {"measurement": "Difference S0 − S1", "setting": "[3]; 25° C., 92/8 vs 91/9", "result": 0, "unit": "wt %"}, {"measurement": "Ratio S1/S0", "setting": "[3]; 25° C., 92/8 vs 91/9", "result": 1.000}, {"measurement": "Solubility S1 (solids weight concentration at the dissolution limit)", "setting": "[3]; 25° C., CH2Cl2/CH3OH 74/26", "result": 17.5, "unit": "wt %"}, {"measurement": "Solubility S0 (solids weight concentration at the dissolution limit)", "setting": "[3]; 25° C., CH2Cl2/CH3OH 87/13", "result": 37.5, "unit": "wt %"}, {"measurement": "Solubility S1 (solids weight concentration at the dissolution limit)", "setting": "[3]; 25° C., CH2Cl2/CH3OH 91/9", "result": 37.5, "unit": "wt %"}, {"measurement": "Solubility S0 (solids weight concentration at the dissolution limit)", "setting": "[3]; 25° C., CH2Cl2/CH3OH 92/8", "result": 37.5, "unit": "wt %"}, {"measurement": "Difference S0 − S1", "setting": "[3]; 35° C., 92/8 vs 91/9", "result": 0, "unit": "wt %"}, {"measurement": "Ratio S1/S0", "setting": "[3]; 35° C., 92/8 vs 91/9", "result": 1.000}, {"measurement": "Solubility S1 (solids weight concentration at the dissolution limit)", "setting": "[3]; 35° C., CH2Cl2/CH3OH 91/9", "result": 27.5, "unit": "wt %"}, {"measurement": "Solubility S0 (solids weight concentration at the dissolution limit)", "setting": "[3]; 35° C., CH2Cl2/CH3OH 92/8", "result": 27.5, "unit": "wt %"}, {"measurement": "Difference in solubility S0−S1", "setting": "[3]; [7]", "result": "≥ 15", "unit": "wt %"}, {"measurement": "Ratio S1/S0 of the solubility", "setting": "[3]; [7]", "result": "less than 0.5"}]}
